Assay: The drug is tested on Bacteroides sp. WH2 strain: WH2 for biotransformation. The drug concentrations were measured before and after a 12-h incubation by liquid-chromatography-coupled mass spectrometry (LC–MS)
Conditions: bacteroides sp. wh2, 12 h, 2 µM

| Compound | Bacterial Biotransformation |
| --- | --- |
| COc1ccccc1OCC(O)COC(N)=O (stereo not given) [METHOCARBAMOL] | Compound NOT metabolized |
| O=C(Nc1ccccc1)OCC(CN1CCCCC1)OC(=O)Nc1ccccc1 (stereo not given) [DIPERODON] | Compound NOT metabolized |
| CCN(CC)C(=O)C1(c2ccccc2)CC1CN (stereo not given) | Compound NOT metabolized |

Assay: The drug is tested on Bifidobacterium ruminantium strain: fecal isolate for biotransformation. The drug concentrations were measured before and after a 12-h incubation by liquid-chromatography-coupled mass spectrometry (LC–MS)
Conditions: 2 µM

| Compound | Bacterial Biotransformation |
| --- | --- |
| COc1ccccc1OCC(O)COC(N)=O (stereo not given) [METHOCARBAMOL] | Compound NOT metabolized |
| O=C(Nc1ccccc1)OCC(CN1CCCCC1)OC(=O)Nc1ccccc1 (stereo not given) [DIPERODON] | Compound NOT metabolized |
| CCN(CC)C(=O)C1(c2ccccc2)CC1CN (stereo not given) | Compound NOT metabolized |

Conditions: akkermansia muciniphila, 12 h, 2 µM
Description: The drug is tested on Akkermansia muciniphila strain: ATCC BAA-835 for biotransformation. The drug concentrations were measured before and after a 12-h incubation by liquid-chromatography-coupled mass spectrometry (LC–MS)

| Compound | Bacterial Biotransformation |
| --- | --- |
| COc1ccccc1OCC(O)COC(N)=O (stereo not given) [METHOCARBAMOL] | Compound NOT metabolized |
| O=C(Nc1ccccc1)OCC(CN1CCCCC1)OC(=O)Nc1ccccc1 (stereo not given) [DIPERODON] | Compound NOT metabolized |
| CCN(CC)C(=O)C1(c2ccccc2)CC1CN (stereo not given) | Compound NOT metabolized |

Assay: The drug is tested on Ruminococcus gnavus strain: ATCC29149 for biotransformation. The drug concentrations were measured before and after a 12-h incubation by liquid-chromatography-coupled mass spectrometry (LC–MS)
Conditions: mediterraneibacter gnavus, 2 µM

| Compound | Bacterial Biotransformation |
| --- | --- |
| COc1ccccc1OCC(O)COC(N)=O (stereo not given) [METHOCARBAMOL] | Compound NOT metabolized |
| O=C(Nc1ccccc1)OCC(CN1CCCCC1)OC(=O)Nc1ccccc1 (stereo not given) [DIPERODON] | Compound NOT metabolized |
| CCN(CC)C(=O)C1(c2ccccc2)CC1CN (stereo not given) | Compound NOT metabolized |

Conditions: bacteroides intestinalis, 12 h, 2 µM
Description: The drug is tested on Bacteroides intestinalis strain: DSM17393 for biotransformation. The drug concentrations were measured before and after a 12-h incubation by liquid-chromatography-coupled mass spectrometry (LC–MS)

| Compound | Bacterial Biotransformation |
| --- | --- |
| COc1ccccc1OCC(O)COC(N)=O (stereo not given) [METHOCARBAMOL] | Compound NOT metabolized |
| O=C(Nc1ccccc1)OCC(CN1CCCCC1)OC(=O)Nc1ccccc1 (stereo not given) [DIPERODON] | Compound NOT metabolized |
| CCN(CC)C(=O)C1(c2ccccc2)CC1CN (stereo not given) | Compound NOT metabolized |

Assay: The drug is tested on Clostridium ramosum strain: DSM1402 for biotransformation. The drug concentrations were measured before and after a 12-h incubation by liquid-chromatography-coupled mass spectrometry (LC–MS)
Conditions: thomasclavelia ramosa, 2 µM

| Compound | Bacterial Biotransformation |
| --- | --- |
| COc1ccccc1OCC(O)COC(N)=O (stereo not given) [METHOCARBAMOL] | Compound NOT metabolized |
| O=C(Nc1ccccc1)OCC(CN1CCCCC1)OC(=O)Nc1ccccc1 (stereo not given) [DIPERODON] | Compound NOT metabolized |
| CCN(CC)C(=O)C1(c2ccccc2)CC1CN (stereo not given) | Compound NOT metabolized |

Assay: The drug is tested on Bifidobacterium longum subsp. Infantis strain: CCUG52486 for biotransformation. The drug concentrations were measured before and after a 12-h incubation by liquid-chromatography-coupled mass spectrometry (LC–MS)
Conditions: 2 µM

| Compound | Bacterial Biotransformation |
| --- | --- |
| COc1ccccc1OCC(O)COC(N)=O (stereo not given) [METHOCARBAMOL] | Compound NOT metabolized |
| O=C(Nc1ccccc1)OCC(CN1CCCCC1)OC(=O)Nc1ccccc1 (stereo not given) [DIPERODON] | Compound NOT metabolized |
| CCN(CC)C(=O)C1(c2ccccc2)CC1CN (stereo not given) | Compound NOT metabolized |

Conditions: limosilactobacillus reuteri cf48-3a, 12 h, 2 µM
Description: The drug is tested on Lactobacillus reuteri CF48-3A strain: BEI HM-102 for biotransformation. The drug concentrations were measured before and after a 12-h incubation by liquid-chromatography-coupled mass spectrometry (LC–MS)

| Compound | Bacterial Biotransformation |
| --- | --- |
| COc1ccccc1OCC(O)COC(N)=O (stereo not given) [METHOCARBAMOL] | Compound NOT metabolized |
| O=C(Nc1ccccc1)OCC(CN1CCCCC1)OC(=O)Nc1ccccc1 (stereo not given) [DIPERODON] | Compound NOT metabolized |
| CCN(CC)C(=O)C1(c2ccccc2)CC1CN (stereo not given) | Compound NOT metabolized |

Assay: The drug is tested on Bacteroides dorei strain: DSM17855 for biotransformation. The drug concentrations were measured before and after a 12-h incubation by liquid-chromatography-coupled mass spectrometry (LC–MS)
Conditions: phocaeicola dorei, 2 µM

| Compound | Bacterial Biotransformation |
| --- | --- |
| COc1ccccc1OCC(O)COC(N)=O (stereo not given) [METHOCARBAMOL] | Compound NOT metabolized |
| O=C(Nc1ccccc1)OCC(CN1CCCCC1)OC(=O)Nc1ccccc1 (stereo not given) [DIPERODON] | Compound NOT metabolized |
| CCN(CC)C(=O)C1(c2ccccc2)CC1CN (stereo not given) | Compound NOT metabolized |

Conditions: roseburia intestinalis, 12 h, 2 µM
Description: The drug is tested on Roseburia intestinalis strain: L1-82 for biotransformation. The drug concentrations were measured before and after a 12-h incubation by liquid-chromatography-coupled mass spectrometry (LC–MS)

| Compound | Bacterial Biotransformation |
| --- | --- |
| COc1ccccc1OCC(O)COC(N)=O (stereo not given) [METHOCARBAMOL] | Compound NOT metabolized |
| O=C(Nc1ccccc1)OCC(CN1CCCCC1)OC(=O)Nc1ccccc1 (stereo not given) [DIPERODON] | Compound NOT metabolized |
| CCN(CC)C(=O)C1(c2ccccc2)CC1CN (stereo not given) | Compound NOT metabolized |

Assay: The drug is tested on Eubacterium hallii strain: DSM3353 for biotransformation. The drug concentrations were measured before and after a 12-h incubation by liquid-chromatography-coupled mass spectrometry (LC–MS)
Conditions: anaerobutyricum hallii, 2 µM

| Compound | Bacterial Biotransformation |
| --- | --- |
| COc1ccccc1OCC(O)COC(N)=O (stereo not given) [METHOCARBAMOL] | Compound NOT metabolized |
| O=C(Nc1ccccc1)OCC(CN1CCCCC1)OC(=O)Nc1ccccc1 (stereo not given) [DIPERODON] | Compound NOT metabolized |
| CCN(CC)C(=O)C1(c2ccccc2)CC1CN (stereo not given) | Compound NOT metabolized |

Assay: The drug is tested on Bacteroides xylanisolvens strain: DSM18836 for biotransformation. The drug concentrations were measured before and after a 12-h incubation by liquid-chromatography-coupled mass spectrometry (LC–MS)
Conditions: 2 µM

| Compound | Bacterial Biotransformation |
| --- | --- |
| COc1ccccc1OCC(O)COC(N)=O (stereo not given) [METHOCARBAMOL] | Compound NOT metabolized |
| O=C(Nc1ccccc1)OCC(CN1CCCCC1)OC(=O)Nc1ccccc1 (stereo not given) [DIPERODON] | Compound NOT metabolized |
| CCN(CC)C(=O)C1(c2ccccc2)CC1CN (stereo not given) | Compound NOT metabolized |

Conditions: bacteroides thetaiotaomicron, 12 h, 2 µM
Description: The drug is tested on Bacteroides thetaiotaomicron strain: 3731 for biotransformation. The drug concentrations were measured before and after a 12-h incubation by liquid-chromatography-coupled mass spectrometry (LC–MS)

| Compound | Bacterial Biotransformation |
| --- | --- |
| COc1ccccc1OCC(O)COC(N)=O (stereo not given) [METHOCARBAMOL] | Compound NOT metabolized |
| O=C(Nc1ccccc1)OCC(CN1CCCCC1)OC(=O)Nc1ccccc1 (stereo not given) [DIPERODON] | Compound NOT metabolized |
| CCN(CC)C(=O)C1(c2ccccc2)CC1CN (stereo not given) | Compound NOT metabolized |

Conditions: bacteroides fragilis, 12 h, 2 µM
Description: The drug is tested on Bacteroides fragilis strain: NCTC 9343 for biotransformation. The drug concentrations were measured before and after a 12-h incubation by liquid-chromatography-coupled mass spectrometry (LC–MS)

| Compound | Bacterial Biotransformation |
| --- | --- |
| COc1ccccc1OCC(O)COC(N)=O (stereo not given) [METHOCARBAMOL] | Compound NOT metabolized |
| O=C(Nc1ccccc1)OCC(CN1CCCCC1)OC(=O)Nc1ccccc1 (stereo not given) [DIPERODON] | Compound NOT metabolized |
| CCN(CC)C(=O)C1(c2ccccc2)CC1CN (stereo not given) | Compound NOT metabolized |

Assay: The drug is tested on Eubacterium ventriosum strain: ATCC27560 for biotransformation. The drug concentrations were measured before and after a 12-h incubation by liquid-chromatography-coupled mass spectrometry (LC–MS)
Type: ADME
Parameters: dose 2 uM, timepoint 0 vs 12 hours
Conditions: 2 µM

| Compound | Bacterial Biotransformation |
| --- | --- |
| COc1ccccc1OCC(O)COC(N)=O (stereo not given) [METHOCARBAMOL] | Compound NOT metabolized |
| O=C(Nc1ccccc1)OCC(CN1CCCCC1)OC(=O)Nc1ccccc1 (stereo not given) [DIPERODON] | Compound NOT metabolized |
| CCN(CC)C(=O)C1(c2ccccc2)CC1CN (stereo not given) | Compound NOT metabolized |

Assay: The drug is tested on Bacteroides finegoldii strain: DSM17565 for biotransformation. The drug concentrations were measured before and after a 12-h incubation by liquid-chromatography-coupled mass spectrometry (LC–MS)
Conditions: 2 µM

| Compound | Bacterial Biotransformation |
| --- | --- |
| COc1ccccc1OCC(O)COC(N)=O (stereo not given) [METHOCARBAMOL] | Compound NOT metabolized |
| O=C(Nc1ccccc1)OCC(CN1CCCCC1)OC(=O)Nc1ccccc1 (stereo not given) [DIPERODON] | Compound NOT metabolized |
| CCN(CC)C(=O)C1(c2ccccc2)CC1CN (stereo not given) | Compound NOT metabolized |

Assay: The drug is tested on Bacteroides fragilis strain: HMW615 for biotransformation. The drug concentrations were measured before and after a 12-h incubation by liquid-chromatography-coupled mass spectrometry (LC–MS)
Conditions: 2 µM

| Compound | Bacterial Biotransformation |
| --- | --- |
| COc1ccccc1OCC(O)COC(N)=O (stereo not given) [METHOCARBAMOL] | Compound NOT metabolized |
| O=C(Nc1ccccc1)OCC(CN1CCCCC1)OC(=O)Nc1ccccc1 (stereo not given) [DIPERODON] | Compound NOT metabolized |
| CCN(CC)C(=O)C1(c2ccccc2)CC1CN (stereo not given) | Compound NOT metabolized |

Assay: The drug is tested on Anaerotruncus colihominis strain: DSM17241 for biotransformation. The drug concentrations were measured before and after a 12-h incubation by liquid-chromatography-coupled mass spectrometry (LC–MS)
Conditions: 2 µM

| Compound | Bacterial Biotransformation |
| --- | --- |
| COc1ccccc1OCC(O)COC(N)=O (stereo not given) [METHOCARBAMOL] | Compound NOT metabolized |
| O=C(Nc1ccccc1)OCC(CN1CCCCC1)OC(=O)Nc1ccccc1 (stereo not given) [DIPERODON] | Compound NOT metabolized |
| CCN(CC)C(=O)C1(c2ccccc2)CC1CN (stereo not given) | Compound NOT metabolized |

Assay: The drug is tested on Collinsella aerofaciens strain: ATCC25986 for biotransformation. The drug concentrations were measured before and after a 12-h incubation by liquid-chromatography-coupled mass spectrometry (LC–MS)
Conditions: 2 µM

| Compound | Bacterial Biotransformation |
| --- | --- |
| COc1ccccc1OCC(O)COC(N)=O (stereo not given) [METHOCARBAMOL] | Compound NOT metabolized |
| O=C(Nc1ccccc1)OCC(CN1CCCCC1)OC(=O)Nc1ccccc1 (stereo not given) [DIPERODON] | Compound NOT metabolized |
| CCN(CC)C(=O)C1(c2ccccc2)CC1CN (stereo not given) | Compound NOT metabolized |

Assay: The drug is tested on Providencia stuartii strain: ATCC25827 for biotransformation. The drug concentrations were measured before and after a 12-h incubation by liquid-chromatography-coupled mass spectrometry (LC–MS)
Conditions: 2 µM

| Compound | Bacterial Biotransformation |
| --- | --- |
| COc1ccccc1OCC(O)COC(N)=O (stereo not given) [METHOCARBAMOL] | Compound NOT metabolized |
| O=C(Nc1ccccc1)OCC(CN1CCCCC1)OC(=O)Nc1ccccc1 (stereo not given) [DIPERODON] | Compound NOT metabolized |
| CCN(CC)C(=O)C1(c2ccccc2)CC1CN (stereo not given) | Compound NOT metabolized |
